# Experimental data from patent publication US10219513B2, “Safening 4-amino-3-chloro-6-(4-chloro-2-fluoro-3-methoxyphenyl)-5-fluoropyridine-2-carboxylic acid compositions in Brassica species and methods of use thereof” (Dow AgroSciences LLC, priority 2016, dated 2019).
# “And” between values parts separate entries of the source, which are not always exact repeats. Equal entries are not always repeated.
# Tests used:
# [1] = tested on: Brassica napus (Nexera canola, BRSNN-NEX); assay: Greenhouse postemergence application, visual injury after 20-22 d, BRSNN-NEX; settings: for Obs % visual injury: BRSNN-NEX
# Description: (§1) Seeds of the desired test plant species were planted in Sun Gro MetroMix® 306 planting mixture, which typically has a pH of 6.0 to 6.8 and an organic matter content of about 30 percent, in plastic pots with a surface area of 103.2 square centimeters (cm^2). […] The plants were grown for 7-36 days (d) in a greenhouse with an approximate 14-hour (h) photoperiod which was maintained at about 23° C. during the day and 22° C. during the night. Nutrients and water were added on a regular basis and supplemental lighting was provided with overhead metal halide 1000-Watt lamps as necessary. The plants were employed for testing when they reached the second or third true leaf stage.
# (§2) An aliquot of formulated benzyl 4-amino-3-chloro-6-(4-chloro-2-fluoro-3-methoxyphenyl)-5-fluoropyridine-2-carboxylate (florpyrauxifen-benzyl; 300 grams active ingredient per liter (g ai/L) suspension concentrate (SC)) was placed in a 25 mL glass vial and diluted in a volume of 1.25% (v/v) aqueous Agri-dex crop oil concentrated to obtain a stock solution. […] The concentrated stock solutions were diluted with an aqueous mixture of 1.25% v/v of aqueous Agri-dex crop oil concentrate to provide the appropriate application rates. Compound requirements are based upon a 12 milliliter (mL) application volume at a rate of 187 liters per hectare (L/ha). Stock solutions of the formulated materials were prepared following the same procedure. Spray solutions of the compound mixtures were prepared by adding the stock solutions to the appropriate amount of dilution solution to form a 12 mL spray solution. Formulated compounds were applied to the plant material with an overhead Mandel track sprayer equipped with 8002E nozzles calibrated to deliver 187 L/ha over an application area of 0.503 square meters (m^2) at a spray height of 18 inches (43 centimeters (cm)) above average plant canopy. Control plants were sprayed in the same manner with the solvent blank.
# (§3) The treated plants and control plants were placed in a greenhouse as described above and watered by sub-irrigation to prevent wash-off of the test compounds. After 20-22 d, the condition of the test plants as compared with that of the control plants was determined visually and scored on a scale of 0 to 100 percent where 0 corresponds to no injury and 100 corresponds to complete kill. Colby's equation was used to determine the herbicidal effects expected from the mixtures.
# (§4) Benzyl 4-amino-3-chloro-6-(4-chloro-2-fluoro-3-methoxyphenyl)-5-fluoropyridine-2-carboxylate (florpyrauxifen-benzyl, 300 g ai/L SC) was combined in two-, three-, and four-way mixtures with one or more of the following: clopyralid-olamine (as Lontrel™ 35A Herbicidal Concentrate), quinclorac (as Facet 75DF), isoxadifen-ethyl (100 g/L SC), cloquintocet-mexyl (120 g/L EC) or mefenpyr-diethyl (as mefenpyr-diethyl 15WP). The mixtures were applied to kale/Chinese kale (Brassica alboglabra, BRSAG), Juncea canola or brown mustard (Brassica juncea, BRSJU), rutabaga (Brassica napus var. napobrassica, BRSNA), all varieties of canola and oilseed rape (Brassica napus, BRSNN), Nexera™ canola (Brassica napus, BRSNN-NEX), winter oilseed rape (Brassica napus, BRSNW), Roundup Ready® canola (Brassica napus, RR-BRSNN), and turnip or Polish canola (Brassica rapa, BRSRR), and the phytotoxicity of the compositions was measured.
# (§5) Colby's equation was used to determine the herbicidal effects expected from the mixtures evaluated in the described trials (Colby, S. R. Calculation of the synergistic and antagonistic response of herbicide combinations. Weeds 1967, 15, 20-22.).
# (§6) The following equation was used to calculate the expected activity of mixtures containing two active ingredients, A and B: Expected=A+B−(A×B/100) • A=observed efficacy of active ingredient A at the same concentration as used in the mixture; • B=observed efficacy of active ingredient B at the same concentration as used in the mixture.
# [2] = tested on: Brassica napus (all varieties of canola and oilseed rape, BRSNN); assay: Greenhouse postemergence application, visual injury after 20-22 d, BRSNN; settings: for Obs % visual injury: BRSNN
# Description: as §1, §2, §3, §4, §5, §6
# [3] = tested on: Brassica napus (winter oilseed rape, BRSNW); assay: Greenhouse postemergence application, visual injury after 20-22 d, BRSNW; settings: for Obs % visual injury: BRSNW
# Description: as §1, §2, §3, §4, §5, §6
# [4] = tested on: Brassica juncea (Juncea canola or brown mustard, BRSJU); assay: Greenhouse postemergence application, visual injury after 20-22 d, BRSJU; settings: for Obs % visual injury: BRSJU
# Description: as §1, §2, §3, §4, §5, §6
# [5] = tested on: Brassica napus var. napobrassica (rutabaga, BRSNA); assay: Greenhouse postemergence application, visual injury after 20-22 d, BRSNA; settings: for Obs % visual injury: BRSNA
# Description: as §1, §2, §3, §4, §5, §6
# [6] = tested on: Brassica napus (Roundup Ready canola, RR-BRSNN); assay: Greenhouse postemergence application, visual injury after 20-22 d, RR-BRSNN; settings: for Obs % visual injury: RR-BRSNN
# Description: as §1, §2, §3, §4, §5, §6
# [7] = tested on: Brassica alboglabra (kale/Chinese kale, BRSAG); assay: Greenhouse postemergence application, visual injury after 20-22 d, BRSAG; settings: for Obs % visual injury: BRSAG
# Description: as §1, §2, §3, §4, §5, §6
# [8] = tested on: Brassica rapa (turnip or Polish canola, BRSRR); assay: Greenhouse postemergence application, visual injury after 20-22 d, BRSRR; settings: for Obs % visual injury: BRSRR
# Description: as §1, §2, §3, §4, §5, §6
# [9] = clopyralid-olamine 50 g ai/ha alone
# [10] = clopyralid-olamine 100 g ai/ha alone
# [11] = clopyralid-olamine 200 g ai/ha alone
# [12] = postemergence application, greenhouse, application rate (g ai/ha) varies
smiles,measurement,setting,value
"O=C(O)c1nc(Cl)ccc1Cl [Clopyralid-olamine, 2-hydroxyethanaminium 3,6-dichloro-2-pyridinecarboxylate]",Obs % visual injury,[1]; partner alone 50 g ai/ha,0%
same,Obs % visual injury,[1]; partner alone 100 g ai/ha,0%
same,Obs % visual injury,[1]; partner alone 200 g ai/ha,0%
same,% Visual Injury BRSNN-NEX Obs,[1]; [9],0%
same,% Visual Injury Obs,[1]; [9],0%
same,% Visual Injury BRSNN-NEX Obs,[1]; [10],0%
same,% Visual Injury Obs,[1]; [10],0%
same,% Visual Injury BRSNN-NEX Obs,[1]; [11],0%
same,% Visual Injury Obs,[1]; [11],0%
same,% Visual Injury BRSNN-NEX Obs,[1]; [12],0%
same,Obs % visual injury,[2]; partner alone 50 g ai/ha,2%
same,Obs % visual injury,[2]; partner alone 100 g ai/ha,0%
same,Obs % visual injury,[2]; partner alone 200 g ai/ha,0%
same,% Visual Injury BRSNN Obs,[2]; [9],2%
same,% Visual Injury Obs,[2]; [9],2%
same,% Visual Injury BRSNN Obs,[2]; [10],0%
same,% Visual Injury Obs,[2]; [10],0%
same,% Visual Injury BRSNN Obs,[2]; [11],0%
same,% Visual Injury Obs,[2]; [11],0%
same,% Visual Injury BRSNN Obs,[2]; [12],2% and 0%
same,Obs % visual injury,[3]; partner alone 50 g ai/ha,0%
same,Obs % visual injury,[3]; partner alone 100 g ai/ha,0%
same,Obs % visual injury,[3]; partner alone 200 g ai/ha,0%
same,% Visual Injury BRSNW Obs,[3]; [9],0%
same,% Visual Injury Obs,[3]; [9],0%
same,% Visual Injury BRSNW Obs,[3]; [10],0%
same,% Visual Injury Obs,[3]; [10],0%
same,% Visual Injury BRSNW Obs,[3]; [11],0%
same,% Visual Injury Obs,[3]; [11],0%
same,% Visual Injury BRSNW Obs,[3]; [12],0%
same,Obs % visual injury,[4]; partner alone 50 g ai/ha,0%
same,Obs % visual injury,[4]; partner alone 100 g ai/ha,0%
same,Obs % visual injury,[4]; partner alone 200 g ai/ha,0%
same,% Visual Injury BRSJU Obs,[4]; [9],0%
same,% Visual Injury Obs,[4]; [9],0%
same,% Visual Injury BRSJU Obs,[4]; [10],0%
same,% Visual Injury Obs,[4]; [10],0%
same,% Visual Injury BRSJU Obs,[4]; [11],0%
same,% Visual Injury Obs,[4]; [11],0%
same,% Visual Injury BRSJU Obs,[4]; [12],0%
same,Obs % visual injury,[5]; partner alone 50 g ai/ha,0%
same,Obs % visual injury,[5]; partner alone 100 g ai/ha,0%
same,Obs % visual injury,[5]; partner alone 200 g ai/ha,0%
same,% Visual Injury BRSNA Obs,[5]; [9],0%
same,% Visual Injury Obs,[5]; [9],0%
same,% Visual Injury BRSNA Obs,[5]; [10],0%
same,% Visual Injury Obs,[5]; [10],0%
same,% Visual Injury BRSNA Obs,[5]; [11],0%
same,% Visual Injury Obs,[5]; [11],0%
same,% Visual Injury BRSNA Obs,[5]; [12],0%
same,Obs % visual injury,[6]; partner alone 50 g ai/ha,0%
same,Obs % visual injury,[6]; partner alone 100 g ai/ha,0%
same,Obs % visual injury,[6]; partner alone 200 g ai/ha,0%
same,% Visual Injury Obs,[6]; [9],0%
same,% Visual Injury RR-BRSNN Obs,[6]; [9],0%
same,% Visual Injury Obs,[6]; [10],0%
same,% Visual Injury RR-BRSNN Obs,[6]; [10],0%
same,% Visual Injury Obs,[6]; [11],0%
same,% Visual Injury RR-BRSNN Obs,[6]; [11],0%
same,% Visual Injury RR-BRSNN Obs,[6]; [12],0%
same,Obs % visual injury,[7]; partner alone 50 g ai/ha,0%
same,Obs % visual injury,[7]; partner alone 100 g ai/ha,0%
same,Obs % visual injury,[7]; partner alone 200 g ai/ha,0%
same,% Visual Injury BRSAG Obs,[7]; [9],0%
same,% Visual Injury Obs,[7]; [9],0%
same,% Visual Injury BRSAG Obs,[7]; [10],0%
same,% Visual Injury Obs,[7]; [10],0%
same,% Visual Injury BRSAG Obs,[7]; [11],0%
same,% Visual Injury Obs,[7]; [11],0%
same,% Visual Injury BRSAG Obs,[7]; [12],0%
same,Obs % visual injury,[8]; partner alone 50 g ai/ha,0%
same,Obs % visual injury,[8]; partner alone 100 g ai/ha,0%
same,Obs % visual injury,[8]; partner alone 200 g ai/ha,0%
same,% Visual Injury BRSRR Obs,[8]; [9],0%
same,% Visual Injury Obs,[8]; [9],0%
same,% Visual Injury BRSRR Obs,[8]; [10],0%
same,% Visual Injury Obs,[8]; [10],0%
same,% Visual Injury BRSRR Obs,[8]; [11],0%
same,% Visual Injury Obs,[8]; [11],0%
same,% Visual Injury BRSRR Obs,[8]; [12],0%
"CCOC(=O)C1=NN(c2ccc(Cl)cc2Cl)C(C)(C(=O)OCC)C1 (racemic) [Mefenpyr-diethyl, diethyl (RS)-1-(2,4-dichlorophenyl)-5-methyl-2-pyrazoline-3,5-dicarboxylate]",Obs % visual injury BRSNN-NEX,[1]; safener alone 5 g ai/ha,0%
same,Obs % visual injury BRSNN-NEX,[1]; safener alone 10 g ai/ha,0%
same,Obs % visual injury BRSNN-NEX,[1]; safener alone 20 g ai/ha,0%
same,Obs % visual injury BRSNN-NEX,[1]; safener alone 40 g ai/ha,0%
same,Obs % visual injury BRSNN,[2]; safener alone 5 g ai/ha,0%
same,Obs % visual injury BRSNN,[2]; safener alone 10 g ai/ha,0%
same,Obs % visual injury BRSNN,[2]; safener alone 20 g ai/ha,0%
same,Obs % visual injury BRSNN,[2]; safener alone 40 g ai/ha,0%
same,Obs % visual injury BRSNW,[3]; safener alone 5 g ai/ha,0%
same,Obs % visual injury BRSNW,[3]; safener alone 10 g ai/ha,0%
same,Obs % visual injury BRSNW,[3]; safener alone 20 g ai/ha,0%
same,Obs % visual injury BRSNW,[3]; safener alone 40 g ai/ha,0%
same,Obs % visual injury BRSJU,[4]; safener alone 5 g ai/ha,0%
same,Obs % visual injury BRSJU,[4]; safener alone 10 g ai/ha,0%
same,Obs % visual injury BRSJU,[4]; safener alone 20 g ai/ha,0%
same,Obs % visual injury BRSJU,[4]; safener alone 40 g ai/ha,0%
same,Obs % visual injury BRSNA,[5]; safener alone 5 g ai/ha,0%
same,Obs % visual injury BRSNA,[5]; safener alone 10 g ai/ha,0%
same,Obs % visual injury BRSNA,[5]; safener alone 20 g ai/ha,0%
same,Obs % visual injury BRSNA,[5]; safener alone 40 g ai/ha,0%
same,Obs % visual injury RR-BRSNN,[6]; safener alone 5 g ai/ha,0%
same,Obs % visual injury RR-BRSNN,[6]; safener alone 10 g ai/ha,0%
same,Obs % visual injury RR-BRSNN,[6]; safener alone 20 g ai/ha,0%
same,Obs % visual injury RR-BRSNN,[6]; safener alone 40 g ai/ha,0%
same,Obs % visual injury BRSAG,[7]; safener alone 5 g ai/ha,0%
same,Obs % visual injury BRSAG,[7]; safener alone 10 g ai/ha,0%
same,Obs % visual injury BRSAG,[7]; safener alone 20 g ai/ha,0%
same,Obs % visual injury BRSAG,[7]; safener alone 40 g ai/ha,0%
same,Obs % visual injury BRSRR,[8]; safener alone 5 g ai/ha,0%
same,Obs % visual injury BRSRR,[8]; safener alone 10 g ai/ha,0%
same,Obs % visual injury BRSRR,[8]; safener alone 20 g ai/ha,0%
same,Obs % visual injury BRSRR,[8]; safener alone 40 g ai/ha,0%
